Molecular target: S6MTHFR (Sphingobium sp. SYK-6, UniProt G2IQS8)
Assay: X-ray crystal structure of CH3-THF complex, […] Å
Type: binding
Details: FAD bound as purified; pH 4.5

Chain of S6MTHFR (G2IQS8 2-288): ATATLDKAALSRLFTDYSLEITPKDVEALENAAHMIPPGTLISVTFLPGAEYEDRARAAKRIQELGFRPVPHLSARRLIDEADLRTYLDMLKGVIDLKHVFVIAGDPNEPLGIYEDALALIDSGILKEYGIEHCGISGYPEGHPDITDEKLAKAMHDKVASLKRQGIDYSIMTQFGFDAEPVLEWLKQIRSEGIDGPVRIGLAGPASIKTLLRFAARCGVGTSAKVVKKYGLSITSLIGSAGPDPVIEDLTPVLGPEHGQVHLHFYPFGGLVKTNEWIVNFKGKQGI

SMILES: Cc1cc2nc3c(=O)[nH]c(=O)nc-3n(C[C@H](O)[C@H](O)[C@H](O)COP(=O)(O)OP(=O)(O)OC[C@H]3O[C@@H](n4cnc5c(N)ncnc54)[C@H](O)[C@@H]3O)c2cc1C [FAD]
- X-ray crystal structure of CH3-THF complex, 1.85 Å: FAD and the experimentally observed part of the CH3-THF molecule are shown by stick models
